# Laboratory results reported in publication PMC11303713, “Allosteric inhibition of CFTR gating by CFTRinh-172 binding in the pore” (Nature Communications, 2024).
# “And” between values parts separate entries of the source, which are not always exact repeats. Identical values can stand only once. Like-named read-outs stand apart in the source and are kept apart here.
# Legend:
# [1] = target: T1, p-hTM8-p-CFTR (pig CFTR, three TM8 amino acids replaced with human's) (Sus scrofa, UniProt Q6PQZ2, G926T/L930M/L932F); experiment: Inside-out patch-clamp inhibition of CFTR current by Inh-172; format: cell-based
# T1 construct: expressed in transfected cells; host or cells: CHO cells, pcDNA plasmid
# T1 sequence (Q6PQZ2 whole entry G926T/L930M/L932F): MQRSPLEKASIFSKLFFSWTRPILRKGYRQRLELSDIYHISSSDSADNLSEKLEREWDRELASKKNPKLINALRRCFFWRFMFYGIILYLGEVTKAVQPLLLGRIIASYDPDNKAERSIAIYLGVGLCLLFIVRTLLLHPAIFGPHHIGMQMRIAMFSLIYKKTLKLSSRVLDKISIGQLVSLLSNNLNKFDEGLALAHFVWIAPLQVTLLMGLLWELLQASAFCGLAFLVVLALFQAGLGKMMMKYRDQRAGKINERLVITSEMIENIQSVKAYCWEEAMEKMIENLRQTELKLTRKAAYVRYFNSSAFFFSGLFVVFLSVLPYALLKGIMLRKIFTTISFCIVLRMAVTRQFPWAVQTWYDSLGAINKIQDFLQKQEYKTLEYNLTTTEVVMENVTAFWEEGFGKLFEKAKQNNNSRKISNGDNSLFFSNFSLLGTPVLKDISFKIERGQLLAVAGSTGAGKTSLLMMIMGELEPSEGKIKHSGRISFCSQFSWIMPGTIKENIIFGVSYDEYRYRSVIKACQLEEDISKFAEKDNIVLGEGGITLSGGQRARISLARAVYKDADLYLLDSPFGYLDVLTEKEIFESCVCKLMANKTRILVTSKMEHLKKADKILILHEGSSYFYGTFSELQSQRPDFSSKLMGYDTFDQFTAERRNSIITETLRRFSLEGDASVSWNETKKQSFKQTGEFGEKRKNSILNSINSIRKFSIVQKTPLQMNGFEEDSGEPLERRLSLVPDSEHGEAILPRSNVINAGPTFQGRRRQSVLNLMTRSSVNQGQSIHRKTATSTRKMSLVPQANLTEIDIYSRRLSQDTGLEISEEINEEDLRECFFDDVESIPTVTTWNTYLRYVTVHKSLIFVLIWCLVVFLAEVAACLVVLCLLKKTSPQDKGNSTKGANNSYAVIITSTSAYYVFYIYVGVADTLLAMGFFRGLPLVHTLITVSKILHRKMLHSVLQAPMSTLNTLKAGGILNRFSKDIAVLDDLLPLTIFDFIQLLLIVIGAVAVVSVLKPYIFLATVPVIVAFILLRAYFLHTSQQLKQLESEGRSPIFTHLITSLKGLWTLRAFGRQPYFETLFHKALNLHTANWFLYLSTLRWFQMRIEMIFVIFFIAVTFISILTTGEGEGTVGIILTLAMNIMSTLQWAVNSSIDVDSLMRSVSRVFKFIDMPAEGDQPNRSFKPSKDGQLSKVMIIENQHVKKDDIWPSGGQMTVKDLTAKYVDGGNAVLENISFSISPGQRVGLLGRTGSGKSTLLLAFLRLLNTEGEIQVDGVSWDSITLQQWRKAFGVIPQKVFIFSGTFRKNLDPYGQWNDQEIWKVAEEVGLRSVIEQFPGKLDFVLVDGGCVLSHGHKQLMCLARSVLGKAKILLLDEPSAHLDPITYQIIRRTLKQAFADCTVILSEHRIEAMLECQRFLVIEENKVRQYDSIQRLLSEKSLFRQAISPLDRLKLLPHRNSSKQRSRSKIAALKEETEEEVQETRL
# [2] = target: T2, W1145Y-CFTR (Homo sapiens, UniProt P13569, W1145Y); experiment: as above; format: cell-based; settings: for inhibition at 0.5 µM: 500 nM Inh-172; for inhibition at 5 µM: 5000 nM Inh-172; for inhibition at 10 µM: 10000 nM Inh-172
# T2 construct: expressed in transfected cells; host or cells: CHO cells, pcDNA plasmid
# T2 sequence (P13569 whole entry W1145Y): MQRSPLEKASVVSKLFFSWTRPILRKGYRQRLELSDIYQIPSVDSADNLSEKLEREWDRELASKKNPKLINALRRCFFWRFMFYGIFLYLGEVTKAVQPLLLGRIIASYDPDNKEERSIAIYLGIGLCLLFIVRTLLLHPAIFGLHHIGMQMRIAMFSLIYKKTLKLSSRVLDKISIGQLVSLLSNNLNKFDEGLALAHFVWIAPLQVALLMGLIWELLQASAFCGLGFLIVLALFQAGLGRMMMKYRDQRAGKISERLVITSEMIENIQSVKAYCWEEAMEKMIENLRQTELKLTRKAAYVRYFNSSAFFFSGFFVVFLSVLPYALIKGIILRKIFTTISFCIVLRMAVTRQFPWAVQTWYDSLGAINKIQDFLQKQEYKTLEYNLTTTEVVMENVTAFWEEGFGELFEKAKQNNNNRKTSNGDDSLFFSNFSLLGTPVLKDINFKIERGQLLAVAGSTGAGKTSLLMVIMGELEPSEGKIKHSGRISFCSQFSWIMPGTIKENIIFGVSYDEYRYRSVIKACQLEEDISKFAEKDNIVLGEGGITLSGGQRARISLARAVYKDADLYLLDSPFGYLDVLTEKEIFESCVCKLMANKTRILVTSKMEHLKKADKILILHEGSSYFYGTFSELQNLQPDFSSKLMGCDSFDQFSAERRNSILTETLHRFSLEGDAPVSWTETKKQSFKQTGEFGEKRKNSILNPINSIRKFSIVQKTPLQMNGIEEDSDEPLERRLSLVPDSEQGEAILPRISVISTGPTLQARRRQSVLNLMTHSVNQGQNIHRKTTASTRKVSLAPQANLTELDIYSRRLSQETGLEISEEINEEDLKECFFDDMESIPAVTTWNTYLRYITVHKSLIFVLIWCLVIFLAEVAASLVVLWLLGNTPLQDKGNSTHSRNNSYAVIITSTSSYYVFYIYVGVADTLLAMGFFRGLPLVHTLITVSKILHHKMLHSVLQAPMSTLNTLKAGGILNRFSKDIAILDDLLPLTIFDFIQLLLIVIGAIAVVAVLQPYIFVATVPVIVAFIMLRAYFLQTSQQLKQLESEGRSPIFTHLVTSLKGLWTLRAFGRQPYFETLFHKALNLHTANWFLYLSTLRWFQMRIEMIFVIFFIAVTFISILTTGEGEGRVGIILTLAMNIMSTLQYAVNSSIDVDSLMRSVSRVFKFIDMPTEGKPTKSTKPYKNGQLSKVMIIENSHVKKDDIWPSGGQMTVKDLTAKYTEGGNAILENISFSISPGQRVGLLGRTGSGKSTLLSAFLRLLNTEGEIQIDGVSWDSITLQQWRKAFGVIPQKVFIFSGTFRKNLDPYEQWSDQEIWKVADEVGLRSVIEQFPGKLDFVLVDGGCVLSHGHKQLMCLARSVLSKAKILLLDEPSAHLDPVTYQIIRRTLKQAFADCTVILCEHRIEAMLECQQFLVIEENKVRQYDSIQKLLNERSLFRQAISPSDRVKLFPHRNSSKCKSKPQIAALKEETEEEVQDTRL
# [3] = 100 nM Inh-172, read-out: percent inhibition of current, Mean
# [4] = 1000 nM Inh-172, read-out: percent inhibition of current, Mean
# [5] = read-out: percent inhibition of current, Mean
# [6] = read-out: percent inhibition of current, individual cell
structure (smiles),measurement,setting,value
"O=C(O)c1ccc(/C=C2\SC(=S)N(c3cccc(C(F)(F)F)c3)C2=O)cc1 [Inh-172, CFTRinh-172]","percent inhibition of current, individual cell",[1]; 25 nM Inh-172,0 and 3
same,inhibition at 0.025 µM,"[1]; 25 nM Inh-172, read-out: percent inhibition of current, Mean",1%
same,"percent inhibition of current, individual cell",[1]; 100 nM Inh-172,18 and 20 and 14 and 17
same,inhibition at 0.1 µM,[1]; [3],16.4%
same,inhibition at 0.1 µM,"[1]; 100 nM Inh-172, read-out: percent inhibition of current, individual cell",13%
same,"percent inhibition of current, individual cell",[1]; 500 nM Inh-172,63 and 60 and 56 and 33 and 23
same,inhibition at 0.5 µM,"[1]; 500 nM Inh-172, read-out: percent inhibition of current, Mean",47%
same,"percent inhibition of current, individual cell",[1]; 1000 nM Inh-172,53 and 44 and 63
same,inhibition at 1 µM,[1]; [4],54%
same,inhibition at 1 µM,"[1]; 1000 nM Inh-172, read-out: percent inhibition of current, individual cell",57%
same,"percent inhibition of current, individual cell",[1]; 10000 nM Inh-172,82 and 85
same,inhibition at 10 µM,"[1]; 10000 nM Inh-172, read-out: percent inhibition of current, Mean",89%
same,inhibition at 10 µM,"[1]; 10000 nM Inh-172, read-out: percent inhibition of current, individual cell",100%
same,Hill Coefficient,[1]; p-hTM8-p,0.84 ± 0.10
same,IC50,[1]; p-hTM8-p,720 ± 90 nM
same,inhibition at 0.1 µM,[2]; [3],10.8%
same,inhibition at 0.5 µM,[2]; [5],38%
same,inhibition at 0.5 µM,[2]; [6],29%
same,inhibition at 1 µM,[2]; [4],54%
same,inhibition at 5 µM,[2]; [5],82%
same,inhibition at 5 µM,[2]; [6],77%
same,inhibition at 10 µM,[2]; [5],91.4%
same,inhibition at 10 µM,[2]; [6],88%
same,Hill Coefficient,[2]; W1145Y,0.92 ± 0.03
same,IC50,[2]; W1145Y,870 ± 30 nM
